Experimental data: patent publication US10960007B2, “Pharmacologically active aryl-substituted pyrazolo[1,5-a]pyrimidine derivatives” (RICHTER GEDEON NYRT., priority 2017, dated 2021)
Read-outs that look alike come from different tables or passages of the source. Values belong to the compound of their own block, whether it stands above or below them.

Assays:
mice = conditions: cited from earlier work
GABAB receptor [1] = molecular target: T1, GABAB receptor (Homo sapiens, UniProt O75899+Q9UBS5); conditions: Perdona et al, Neuropharmacology 2011; read-out: EC50, positive modulation of EC20 GABA-evoked [35S]GTPγS binding signal; cited from earlier work
rats = conditions: significance only at high doses (30 and 100 mg/kg); cited from earlier work
[2] = mouse conventional liver microsomes; cited from earlier work
[3] = rat conventional liver microsomes; cited from earlier work
GABAB receptor [4] = molecular target: T2, GABAB receptor (Rattus norvegicus, UniProt O88871+Q9Z0U4); test: In vitro [35S]GTPγS binding assay in rat cortical membranes; format: biochemical
T2 construct: from tissue; host or cells: rat brain cortex membranes
Protocol: In Vitro [^35S]GTPγS Binding Assay in Rat Cortical Membranes
Cortices of freshly harvested rat brains were dissected on an ice-cold surface and homogenized by a glass Dounce homogeniser immediately in ice-cold buffer containing 50 mM Tris, 5 mM MgCl2 and 1 mM EDTA (pH=7.6). Tissue homogenates were centrifuged at 40000 g for 15 min at 4° C. Membrane pellets were resuspended in the same buffer and membranes were incubated for 10 min at 30° C. in a shaking water bath to eliminate endogenous GABA. Homogenates were centrifuged again under the same conditions. The final pellets were resuspended in ice-cold buffer (pH=7.6) containing 50 mM Tris, 100 mM NaCl, 7 mM MgCl2, 1 mM EDTA and 1 mM dithiotreithol (DTT) to yield a concentration of 20 mg tissue weight/ml and frozen at −70° C. until use. The assay was done in a buffer containing 50 mM Tris (pH=7.4), 100 mM NaCl, 7 mM MgCl2, 1 mM EDTA and 1 mM DTT. Each assay tube contained 150 μL GDP (in a final concentration of 50 μM), 100 μL ligand and 125 μL of the membrane suspension (250 μg tissue/tube). The assay tubes were preincubated for 10 min at 30° C. to assure equilibrium. Nonspecific binding was determined in the presence of 10 μM GTPγS; basal binding was determined in the presence of buffer only. After addition of […] [^35S]GTPγS in a volume of 25 μL to the tubes, membranes were incubated for an additional 60 min at 30° C. The assay was terminated by rapid filtration through Packard UniFilter GF/B using a Packard harvester and washed four times with 1 ml ice-cold buffer. After drying the filters at 40° C. for 1 h, 40 μL Microscint (Packard) was added to the filters and radioactivity of the filters was determined by a TopCount NXT (PerkinElmer, Waltham, Mass.; Alper and Nelson, Eur. J. Pharmacol. 1998, 343, 303-312; Rinken et al, Biochem. Pharmacol. 1999, 57, 155-162). Data thus gathered were used to determine PAM EC50 values for each compound as primary in vitro activity end point.

[5] = human conventional liver microsomes; cited from earlier work
GABAB receptor [6] = molecular target: T1, GABAB receptor; conditions: compounds of Faghih et al., US 2016/0304527 A1; cited from earlier work
adult rats = test: Foot shock-induced ultrasonic vocalization (USV) in adult rats; format: in vivo, rat; conditions: male Wistar rats
Protocol: Foot Shock-Induced Ultrasonic Vocalization (USV) in Adult Rats
(§1) Under stressful conditions, adult rats emit 22 kHz ultrasounds that can be reduced by various pharmacological treatments (De Vry et al, Eur. J. Pharmacol. 1993, 249, 331-339; Sanchez, Eur. J. Pharmacol. 2003, 463, 133-143). […] Therefore, a foot shock-induced vocalization paradigm in adult rats was used to assess in vivo efficacy of centrally acting GABAB receptor ligands. Behavioral measurements were carried out on male Wistar rats (200-250 g, Toxicoop, Hungary). Rats were housed in groups of four in plastic cages with a wire grid top in a temperature and light-controlled laboratory animal care unit (22±2° C., 12-h light/dark cycle, lights on at 6:00 AM) with ad libitum access to commercial pellet rat food and tap water. Investigations were approved by the Local Ethical Committee of Gedeon Richter Plc. and were carried out in strict compliance with the European Directive 2010/63/EU regarding the care and use of laboratory animals for experimental procedures and all efforts were made to minimize the number of animals as well as their suffering. In order to evoke emission of ultrasounds, animals were footshocked after a habituation period of 30 s (6 shocks, 1 s, 0.8 mA each, inter-shock interval 10 s) in a sound attenuated shocking chamber (Experimetria, 40×40×80 cm). […] Vocalizations were measured right after the last footshock for 10 min with a Metris Sonotrack system and the total time of vocalizations was registered. Vocalization of parallel vehicle treated animals was considered as control value and inhibition percent was calculated for each compound. At approximately 75 min after treatment and behavioral measurements, blood and brain samples were harvested in order to determine exposures associated with in vivo activity.

[7] = Plasma and brain exposure after USV measurement; format: in vivo; conditions: rat, per os, about 75 min after treatment, formulation Tween
Protocol: as §1

[8] = [35S]GTPγS binding, rat cortical membranes, read-out: In vitro PAM potency (PAM EC50)

T2 sequence (O88871 41-940): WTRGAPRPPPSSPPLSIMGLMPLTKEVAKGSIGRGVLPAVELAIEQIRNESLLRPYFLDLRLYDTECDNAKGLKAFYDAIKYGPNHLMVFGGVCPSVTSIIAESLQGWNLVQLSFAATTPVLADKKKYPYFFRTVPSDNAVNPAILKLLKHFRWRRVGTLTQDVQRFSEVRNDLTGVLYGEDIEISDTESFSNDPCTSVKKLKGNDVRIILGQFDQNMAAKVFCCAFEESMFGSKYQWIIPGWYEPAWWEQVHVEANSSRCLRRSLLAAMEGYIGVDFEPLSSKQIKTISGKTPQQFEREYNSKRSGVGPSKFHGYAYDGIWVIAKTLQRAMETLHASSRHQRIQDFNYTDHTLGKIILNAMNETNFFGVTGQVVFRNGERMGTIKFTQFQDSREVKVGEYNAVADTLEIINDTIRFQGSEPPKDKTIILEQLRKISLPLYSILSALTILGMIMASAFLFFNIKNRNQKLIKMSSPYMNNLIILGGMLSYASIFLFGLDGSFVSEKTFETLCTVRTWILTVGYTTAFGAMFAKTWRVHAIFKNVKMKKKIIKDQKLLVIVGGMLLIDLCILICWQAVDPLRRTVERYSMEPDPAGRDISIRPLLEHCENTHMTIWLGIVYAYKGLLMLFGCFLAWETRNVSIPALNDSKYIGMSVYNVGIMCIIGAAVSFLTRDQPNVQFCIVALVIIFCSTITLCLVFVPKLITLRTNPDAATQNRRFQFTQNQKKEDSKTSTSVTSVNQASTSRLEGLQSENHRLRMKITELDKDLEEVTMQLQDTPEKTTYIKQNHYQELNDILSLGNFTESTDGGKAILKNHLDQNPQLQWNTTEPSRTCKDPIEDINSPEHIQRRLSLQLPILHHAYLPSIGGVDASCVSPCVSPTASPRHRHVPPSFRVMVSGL
T2 sequence (Q9Z0U4 17-960 limits assumed): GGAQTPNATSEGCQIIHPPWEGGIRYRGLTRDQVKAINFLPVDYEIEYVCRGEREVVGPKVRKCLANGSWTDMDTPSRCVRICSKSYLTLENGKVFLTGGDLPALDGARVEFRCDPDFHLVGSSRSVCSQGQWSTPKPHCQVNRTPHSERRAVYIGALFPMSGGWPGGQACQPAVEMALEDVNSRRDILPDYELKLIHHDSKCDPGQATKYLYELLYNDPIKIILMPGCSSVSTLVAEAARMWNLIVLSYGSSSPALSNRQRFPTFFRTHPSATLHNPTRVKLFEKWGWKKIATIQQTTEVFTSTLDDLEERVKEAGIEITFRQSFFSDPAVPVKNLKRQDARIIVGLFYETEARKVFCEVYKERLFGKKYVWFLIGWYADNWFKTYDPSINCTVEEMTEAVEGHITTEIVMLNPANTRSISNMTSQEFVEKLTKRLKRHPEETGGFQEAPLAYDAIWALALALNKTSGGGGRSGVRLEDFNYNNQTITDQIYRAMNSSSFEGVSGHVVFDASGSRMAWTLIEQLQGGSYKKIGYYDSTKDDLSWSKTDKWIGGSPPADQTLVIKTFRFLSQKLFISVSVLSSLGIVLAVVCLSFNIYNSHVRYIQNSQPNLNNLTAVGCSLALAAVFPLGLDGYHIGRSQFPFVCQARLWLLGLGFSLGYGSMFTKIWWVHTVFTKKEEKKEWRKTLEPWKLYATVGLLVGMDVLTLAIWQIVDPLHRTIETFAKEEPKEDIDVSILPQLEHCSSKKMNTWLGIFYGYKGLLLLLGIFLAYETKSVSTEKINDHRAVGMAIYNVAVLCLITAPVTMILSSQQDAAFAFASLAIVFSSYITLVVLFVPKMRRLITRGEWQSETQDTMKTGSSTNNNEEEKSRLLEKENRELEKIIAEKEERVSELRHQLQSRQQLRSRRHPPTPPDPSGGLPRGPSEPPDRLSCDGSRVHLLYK
T1 sequence (O75899 42-941): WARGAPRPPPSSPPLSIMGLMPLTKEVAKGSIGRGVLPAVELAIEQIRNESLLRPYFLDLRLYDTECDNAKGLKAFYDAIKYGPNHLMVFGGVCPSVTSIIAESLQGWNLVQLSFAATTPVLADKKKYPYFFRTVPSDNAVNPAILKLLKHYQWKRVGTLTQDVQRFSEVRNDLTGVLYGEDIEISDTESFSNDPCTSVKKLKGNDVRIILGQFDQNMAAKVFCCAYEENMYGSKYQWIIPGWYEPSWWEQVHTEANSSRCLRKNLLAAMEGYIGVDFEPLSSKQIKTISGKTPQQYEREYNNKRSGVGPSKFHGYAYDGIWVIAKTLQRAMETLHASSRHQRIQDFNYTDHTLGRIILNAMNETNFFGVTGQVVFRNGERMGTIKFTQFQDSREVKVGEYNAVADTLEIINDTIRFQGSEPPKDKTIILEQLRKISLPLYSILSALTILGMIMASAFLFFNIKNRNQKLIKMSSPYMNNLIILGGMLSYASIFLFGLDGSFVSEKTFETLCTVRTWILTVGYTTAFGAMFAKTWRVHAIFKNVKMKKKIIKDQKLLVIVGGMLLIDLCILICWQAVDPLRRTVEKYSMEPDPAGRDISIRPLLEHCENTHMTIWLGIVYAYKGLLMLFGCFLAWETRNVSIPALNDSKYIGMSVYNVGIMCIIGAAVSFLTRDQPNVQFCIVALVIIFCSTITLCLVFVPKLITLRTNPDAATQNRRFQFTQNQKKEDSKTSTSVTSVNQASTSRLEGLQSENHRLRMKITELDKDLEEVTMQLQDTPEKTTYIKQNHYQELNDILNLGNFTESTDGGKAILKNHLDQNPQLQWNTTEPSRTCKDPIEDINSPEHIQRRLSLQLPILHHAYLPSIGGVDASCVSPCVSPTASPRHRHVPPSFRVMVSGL
T1 sequence (Q9UBS5 15-961 limits assumed): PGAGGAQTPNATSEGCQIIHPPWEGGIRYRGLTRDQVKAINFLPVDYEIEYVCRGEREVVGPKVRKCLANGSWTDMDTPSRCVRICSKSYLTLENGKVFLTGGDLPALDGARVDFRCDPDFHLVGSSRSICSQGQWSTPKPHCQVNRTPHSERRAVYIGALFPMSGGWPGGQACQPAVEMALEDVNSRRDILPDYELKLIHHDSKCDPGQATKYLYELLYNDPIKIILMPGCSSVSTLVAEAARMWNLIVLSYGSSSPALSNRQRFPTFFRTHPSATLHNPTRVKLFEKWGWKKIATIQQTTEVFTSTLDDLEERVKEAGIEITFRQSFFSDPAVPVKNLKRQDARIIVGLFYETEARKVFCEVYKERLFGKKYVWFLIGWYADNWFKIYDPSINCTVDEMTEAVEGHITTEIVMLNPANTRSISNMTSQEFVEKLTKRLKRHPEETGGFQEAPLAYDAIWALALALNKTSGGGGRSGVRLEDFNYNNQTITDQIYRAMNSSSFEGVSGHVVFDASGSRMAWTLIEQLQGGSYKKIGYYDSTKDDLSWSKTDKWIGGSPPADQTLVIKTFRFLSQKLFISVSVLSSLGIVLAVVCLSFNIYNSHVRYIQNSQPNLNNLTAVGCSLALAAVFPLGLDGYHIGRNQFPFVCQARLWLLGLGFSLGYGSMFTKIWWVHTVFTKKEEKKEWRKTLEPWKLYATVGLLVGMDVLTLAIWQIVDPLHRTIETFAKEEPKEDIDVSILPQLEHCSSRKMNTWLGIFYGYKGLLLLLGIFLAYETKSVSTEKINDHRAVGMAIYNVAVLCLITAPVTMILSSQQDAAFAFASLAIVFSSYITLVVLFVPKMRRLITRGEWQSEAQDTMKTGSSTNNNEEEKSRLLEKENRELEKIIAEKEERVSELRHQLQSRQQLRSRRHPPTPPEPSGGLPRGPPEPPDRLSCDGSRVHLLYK

EC50 (GABAB receptor [4]; applicant's test system, read-out: EC50 in our in vitro [35S]GTPγS test system): 611 nM
Structure (SMILES): Cc1cc(N2CCCCC2CCO)n2nc(-c3ccc(Cl)cc3)cc2n1 (stereo not shown) [CMPPE, 2-{1-[2-(4-chlorophenyl)-5-methylpyrazolo[1,5-a]pyrimidin-7-yl]-2-piperidinyl}ethanol]
ED50, potentiation of baclofen-induced muscle relaxation (mice): 53.8 mg/kg
EC50 (GABAB receptor [1]): 2570 nM
Efficacy in food consumption test (rats): mild efficacy
Clint [2]: 1.18±0.4 mL/min/g liver
Clint [3]: 0.31±0.07 mL/min/g liver
Clint [5]: 0.19±0.02 mL/min/g liver

Structure (SMILES): CCC(c1ccc(Cl)cc1)c1cc2nc(C)cc(N3CCCCC3CCO)n2n1 (stereo not shown) [Example 3-1]
Binding potency (in words) (GABAB receptor [6]): nanomolar

Brain exposure at 1 mg/kg [7]: 184 ng/g
Plasma exposure at 1 mg/kg [7]: 222 ng/mL
EC50 (GABAB receptor [4]; [8]): 10 to 100 nM
Structure (SMILES): Cc1nc2cc(-c3ccc(C(F)(F)F)cc3)nn2c(N2CCC[C@@](C(=O)O)(C(C)C)C2)c1C(C)C [Example 28]
inhibition in vivo at 10 mg/kg (adult rats; Rattus norvegicus, po, 10 mg/kg per os, 1 h before shocking): 35%

Brain exposure at 1 mg/kg [7]: 85 ng/g
Plasma exposure at 1 mg/kg [7]: 113 ng/mL
EC50 (GABAB receptor [4]; [8]): 1 to 10 nM
Structure (SMILES): Cc1nc2c(F)c(-c3ccc(C(F)(F)F)cc3)nn2c(N2CCC[C@](C)(C(=O)O)C2)c1C(C)C [Example 84]
USV inhibition (%) (adult rats; at 3 mg/kg, per os): 42 (at 3 mg/kg) %
